Here are results for 16 molecules from ChEMBL document CHEMBL1142713, “From 4,5,6,7-tetrahydro-5-methylimidazo[4,5,1-jk](1,4)benzodiazepin-2(1H)-one (TIBO) to etravirine (TMC125): fifteen years of research on non-nucleoside inhibitors of HIV-1 reverse transcriptase” (J Med Chem, 2005).

In the first assay the test system is MT4. Put plainly: Effective concentration of the compound to inhibit […] replication in HIV-infected MT-4 cells. The format is functional, cell-based. Conditions: Homo sapiens.
`N#Cc1ccc(Nc2cc(N)nc(Cc3c(Cl)cccc3Cl)n2)cc1`: the EC50 (in general, the concentration at which the effect is half-maximal) was determined as 450 nM.
On the same count and under the same terms, then `N#Cc1ccc(Nc2nc(N)cc(Cc3c(Cl)cccc3Cl)n2)cc1`, with 1 nM.
`N#Cc1ccc(Nc2cc(Cc3c(Cl)cccc3Cl)nc(N)n2)cc1` registered an EC50 of 10 nM.

The subject of another assay is MT4. Put plainly: Effective concentration of the compound to inhibit HIV-1 replication in HIV-infected MT-4 cells. In kind it is functional, cell-based. Conditions: Homo sapiens.
`NC(=O)C(Nc1ccc(Cl)cc1)c1c(Cl)cccc1Cl` (stereo not drawn) gave an EC50 greater than 50000 nM.
Same read-out and setting: then `NC(=O)C(NCc1ccccc1[N+](=O)[O-])c1c(Cl)cccc1Cl` (stereo not drawn), with greater than 50000 nM; and `COc1ccccc1NC(C(N)=O)c1c(Cl)cccc1Cl` (stereo not drawn), with 610 nM.
For `NC(=O)C(NC(=O)Nc1ccccc1[N+](=O)[O-])c1c(Cl)cccc1Cl` (stereo not drawn), the half-maximal effective concentration (EC50) was greater than 50000 nM.
On the same count and under the same terms, with `NC(=O)C(NC(=O)c1ccccc1[N+](=O)[O-])c1c(Cl)cccc1Cl` (stereo not drawn) the figure was greater than 50000 nM.
The same measure, in the same setting: with `C=CCN1Cc2cccc3[nH]c(=O)n(c23)CC1C` (stereo not drawn) the figure was 62000 nM; with `CC(C)=CCN1Cc2cc(Cl)cc3[nH]c(=S)n(c23)C[C@@H]1C`, 33 nM.
On the same count and under the same terms, with `NC(=O)C(/N=C(\S)Nc1ccc(Cl)cc1)c1c(Cl)cccc1Cl` (stereo not drawn) the figure was 160 nM; with `NC(=O)C(/N=C(\S)Nc1ccccc1Cl)c1c(Cl)cccc1Cl` (stereo not drawn), greater than 50000 nM; with `N#Cc1ccc(Nc2nc(Cc3c(Cl)cccc3Cl)ns2)cc1`, greater than 1000 nM.
`CC(C)=CCN1Cc2c(Cl)ccc3[nH]c(=S)n(c23)C[C@@H]1C` [TIVIRAPINE] had a half-maximal effective concentration (EC50) of 4.6 nM.
Regarding `NC(=O)C(Nc1ccccc1[N+](=O)[O-])c1c(Cl)cccc1Cl` (stereo not drawn), the concentration for a half-maximal effect (EC50) was determined as 100 nM.
The molecule `NC(=O)C(Nc1ccccc1Cl)c1c(Cl)cccc1Cl` (stereo not drawn) came in with an EC50 of 400 nM.

In a further assay the test system is MT4. Put plainly: Effective concentration of the compound to inhibit HIV-1 mutant L100I replication in HIV-infected MT-4 cells. In kind it is functional, cell-based, Homo sapiens.
Details: not given
In turn, `N#Cc1ccc(Nc2cc(N)nc(Cc3c(Cl)cccc3Cl)n2)cc1` displayed an EC50 greater than 10 µM.
In the case of `N#Cc1ccc(Nc2nc(N)cc(Cc3c(Cl)cccc3Cl)n2)cc1`, the EC50 was 0.3 µM.
Same read-out and setting: then `N#Cc1ccc(Nc2cc(Cc3c(Cl)cccc3Cl)nc(N)n2)cc1`, with greater than 10 µM.

The subject of a further assay is MT4. Put plainly: Effective concentration of the compound to inhibit HIV-1 mutant Y181C replication in HIV-infected MT-4 cells. In kind it is functional, cell-based, Homo sapiens.
Details: not given
In turn, `N#Cc1ccc(Nc2cc(N)nc(Cc3c(Cl)cccc3Cl)n2)cc1` returned an EC50 greater than 10 µM.
`N#Cc1ccc(Nc2nc(N)cc(Cc3c(Cl)cccc3Cl)n2)cc1` registered an EC50 of 0.18 µM. This lies in the sub-micromolar range.
On the same count and under the same terms, with `N#Cc1ccc(Nc2cc(Cc3c(Cl)cccc3Cl)nc(N)n2)cc1` the figure was greater than 10 µM.

For another assay, the system named is MT4. As to the kind of experiment: Effective concentration of the compound to inhibit HIV-1 mutant K103N replication in HIV-infected MT-4 cells. The format is functional, cell-based, Homo sapiens.
Details: not given
Molecule `N#Cc1ccc(Nc2cc(N)nc(Cc3c(Cl)cccc3Cl)n2)cc1` returned an EC50 greater than 10 µM.
On to `N#Cc1ccc(Nc2nc(N)cc(Cc3c(Cl)cccc3Cl)n2)cc1`, for which the EC50 is 0.012 µM.
The same measure, in the same setting: with `N#Cc1ccc(Nc2cc(Cc3c(Cl)cccc3Cl)nc(N)n2)cc1` the figure was greater than 10 µM.

The subject of a further assay is MT4. Put plainly: Effective concentration of the compound to inhibit HIV-1 mutant Y188L replication in HIV-infected MT-4 cells.
Details: not given
The format is functional, cell-based, Homo sapiens.
The molecule `N#Cc1ccc(Nc2cc(N)nc(Cc3c(Cl)cccc3Cl)n2)cc1` returned a half-maximal effective concentration (EC50) greater than 10 µM.
On the same count and under the same terms, then `N#Cc1ccc(Nc2nc(N)cc(Cc3c(Cl)cccc3Cl)n2)cc1`, with 0.071 µM.
Still for that read-out and setting: with `N#Cc1ccc(Nc2cc(Cc3c(Cl)cccc3Cl)nc(N)n2)cc1` the figure was greater than 10 µM.
